# Test results: ChEMBL document CHEMBL1127961, “Antineoplastic agents 315. Isolation and structure of the marine sponge cancer cell growth inhibitor phakellistatin 5” (1994)
# Several values for one entry are separate records, joined by “and”; a condition that tells them apart may be missing. Equal values may be shown once.
# Test system: NCI
# Experiment: Antineoplastic activity against NCI human leukemia cancer cell line
# Type: functional
structure (smiles),measurement,value
"CC[C@H](C)[C@@H]1NC(=O)C(C)NC(=O)[C@H](CCSC)NC(=O)C(C)NC(=O)[C@H](CC(N)=O)NC(=O)[C@H](Cc2ccccc2)NC(=O)C2CCCN2C1=O (single isomer, unassigned) [PHAKELLI STATIN 5]",GI50,3000 nM and 600 nM
